Laboratory results reported in US10626349B2, “Cleavable surfactants” (PROMEGA CORPORATION, priority 2007, dated 2020).

Tests used:
[1] = molecular target: T1, Bacteriorhodopsin digested with chymotrypsin (Halobacterium salinarum, UniProt P02945); experiment: Bacteriorhodopsin/Chymotrypsin digest, HPLC peak area versus RapiGest control; assay type: biochemical; conditions: 0.025% surfactant
T1 sequence (P02945 14-261 limits assumed): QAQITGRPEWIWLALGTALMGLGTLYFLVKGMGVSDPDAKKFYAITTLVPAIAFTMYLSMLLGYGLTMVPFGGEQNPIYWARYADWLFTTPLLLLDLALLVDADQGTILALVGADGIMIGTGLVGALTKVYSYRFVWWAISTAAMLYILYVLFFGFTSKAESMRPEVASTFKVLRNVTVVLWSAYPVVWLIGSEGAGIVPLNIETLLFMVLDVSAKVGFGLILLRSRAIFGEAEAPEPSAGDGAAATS
Experimental: Bacteriorhodopsin (25 μs) was heated with 0.025% Rapigest™ surfactant or the indicated compound of the invention for 5 minutes at 95° C., then digested with chymotrypsin (Sigma) at a 10:1 ratio in 125 μL 50 mM Ammonium bicarbonate for 1 hour at 37° C. After one hour TFA was added to 0.5-2% and the mixtures were incubated at 37° C. or 65° C. for 20 or 30 minutes. Degraded surfactant was removed by centrifugation at 14,000×g for 5 minutes. An aliquot of 50-100 μL of digested protein was analyzed by HPLC as described above.
Compound 3211, 3212, 3224 and Rapigest™ surfactant control for FIG. 13C reactions: Bacteriorhodopsin (25 μs) was solubilized with 0.025% compound of interest for 1-2 minutes at room temperature, then digested with chymotrypsin (Sigma) at a 10:1 ratio in 125 μL 50 mM Ammonium bicarbonate for 1 hour at 37° C. After one hour TFA was added to 0.5-2% and the mixtures were incubated at 37° C. or 65° C. for 20 or 30 minutes. Degraded surfactant was removed by centrifugation at 14,000×g for 5 minutes. An aliquot of 50-100 μL of digested protein was analyzed by HPLC as described above.
(§1) For each compound numbered below in Example 12, the rate of enhanced digestion was determined from the ratio of the surfactant peak area (surfactant # Pk. Area) to the Rapigest™ surfactant peak area (RG Pk area). Peak area was determined as the sum of all peaks integrated from 8-22 minutes.

[2] = Solubility of the surfactant; conditions: for solubility in aqueous solutions (concentration dissolved to) / solubility in aqueous solutions (in words): aqueous solution; for solubilized in DMSO to: 100% DMSO
[3] = molecular target: T2, Myoglobin from horse heart digested with trypsin (Equus caballus, UniProt P68082); experiment: Myoglobin/Trypsin digest, HPLC peak area versus RapiGest control; assay type: biochemical; conditions: 0.01% surfactant, trypsin 50:1, 20 minutes at 37° C.; ratio to RapiGest control, >1 = more digestion
T2 construct: Myoglobin from horse heart; from tissue; host or cells: horse heart
T2 sequence (P68082 2-154 limits assumed): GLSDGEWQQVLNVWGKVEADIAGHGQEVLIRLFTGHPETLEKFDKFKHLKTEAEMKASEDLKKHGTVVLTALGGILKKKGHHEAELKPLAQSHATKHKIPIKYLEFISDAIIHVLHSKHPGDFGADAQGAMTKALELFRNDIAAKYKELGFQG
Experimental: Myoglobin from horse heart (typically 25 μs) was digested with trypsin (Promega) at a 50:1 ratio in a volume of 125 μL (typical) of 50 mM Ammonium bicarbonate for 20 minutes at 37° C. with 0.01% RapiGest™ surfactant or 0.01% of the indicated compound of the invention (upper and lower chromatograms, respectively). TFA was added to 0.5-2% and the mixtures were incubated at 37° C. or 65° C. for 20 or 30 minutes. Degraded surfactant was removed by centrifugation at 14,000×g for 5 minutes. HPLC analysis was performed on a 25-50 μL reaction sample using an HP1050 LC system with an Agilent Sorbax SB-C18 column (3.0×100 mm, 3.5 micron) and a gradient of 0.1% TFA (97.5% initial) and Acetonitrile, 0.01% TFA (55% final condition followed by a 100% wash step) and a flow rate of 0.75 mL/min. Peptides were detected at 214 and 280 nm.
as §1

[4] = Acid and thermal degradation of the surfactant; conditions: for acid-lability (in words): 0.5% TFA at 37° C. where stated (3237: 30 minutes), 3271 by TLC analysis; for degradation after overnight incubation (in words): concentration not given; for thermolability (in words): 3266: 5 minutes at 95° C.
[5] = Hydrolytic stability in 50 mM ammonium bicarbonate (reverse-phase HPLC); assay type: physicochemical
Experimental: Hydrolytic stability was measured by monitoring the change in retention time of the intact surfactant by reverse-phase HPLC. The ½-life is defined as the time required to reach 50% degradation.

[6] = BR heated (boiled) with surfactant 5 minutes at 95° C., chymotrypsin 10:1, 1 hour at 37° C., ratio to RapiGest control
[7] = 0.01% solution, 37° C. where stated

Structure (SMILES)	surfactant Pk area/RG Pk area, Bacteriorhodopsin/Chymotrypsin digest [1, 6]	solubility in aqueous solutions (concentration dissolved to) [2] [%]	surfactant Pk area/RG Pk area, Myoglobin/Trypsin digest [3]	other results
CCCCCCCCCCC(OC(=O)NCCCS(=O)(=O)O)c1ccccc1OC (stereo not drawn) [Compound 3237]	1	0.5	1.4	acid-lability (in words) [4]: Moderate degradation was observed
CCCCCCCCCCOc1ccc(C(OCCN(CCCCS(=O)(=O)[O-])CCCCS(=O)(=O)[O-])(c2ccccc2)c2ccc(OCCCCCCCCCC)cc2)cc1.[Na+].[Na+] [Compound 3218]	0.65	–	0.3	solubilized in DMSO to [2]: 10%; solubility in aqueous solutions (in words) [2]: Insoluble in aqueous solutions
CCCCCCCCCCCCC(OC(=O)NCCCS(=O)(=O)O)c1ccco1 (stereo not drawn) [Compound 3224]	–	0.25	1.3	½-life ([5]; surfactant conc. 0.0025% in 50 mM ammonium bicarbonate): 1.3 h; ½-life ([5]; surfactant conc. 0.025% in 50 mM ammonium bicarbonate): 8.3 h; ½-life ([5]; surfactant conc. 0.10% in 50 mM ammonium bicarbonate): 23 h; ½-life ([5]; surfactant conc. 0.25% in 50 mM ammonium bicarbonate): 22 h; surfactant Pk area/RG Pk area, Bacteriorhodopsin/Chymotrypsin digest ([1]; BR solubilized at room temperature (not boiled), RapiGest control boiled): 0.74; solubility after adding ACN ([2]; ACN added to 20%): 2%
CCCCCCCCCCC1COC(c2cccc(OCCCS(=O)(=O)[O-])c2)O1.[Na+] (stereo not drawn) [Compound 3228]	1.2	1	1.4	degradation rate (grade in words) [4]: low
CCCCCCCC(C)(C)OC(=O)NCC(O)CS(=O)(=O)O (stereo not drawn) [Compound 3204]	0.55	0.5	0.87	degradation rate (grade in words) [4]: moderate
CCCCCCCCCSCC(C)(C)OC(=O)NCCCS(=O)(=O)O [Compound 3206]	0.8	0.5	0.26	degradation rate (grade in words) [4]: moderate
CCCCCCCCCOCC(C)(C)OC(=O)NCCCS(=O)(=O)O [Compound 3205]	0.45	0.5	0.3	degradation after overnight incubation (in words) [4]: No degradation was observed even after overnight incubation
CCCCCCCCCCOc1ccc(C(OCCN(CCCCS(=O)(=O)[O-])CCCCS(=O)(=O)[O-])(c2ccccc2)c2ccc(OC)cc2)cc1.[Na+].[Na+] (stereo not drawn) [Compound 3220]	0.8	1	0.2	time to degradation in 0.5% TFA ([4]; 37° C. where stated, 0.1% solution for 3220 and 3266): ≤ 15 min; thermolability (in words) [4]: moderate thermolability
CCCCCCCCCCCC(C)(C)OC(=O)SCCS(=O)(=O)O [Compound 3189]	0.6	0.5	1.1	degradation of 0.01% solution (in words) [4, 7]: degraded only after overnight incubation
CCCCCCCCCCCC(C)(C)OC(=O)NCC(O)CS(=O)(=O)[O-].[Na+] (stereo not drawn) [Compound 3192]	1.1	0.5	1.3	degradation of 0.01% solution (in words) [4, 7]: degraded only after overnight incubation
CCCCCCCCCCCC(C)(C)OC(=O)Nc1ccc(N(CCCCS(=O)(=O)[O-])CCCCS(=O)(=O)O)cc1.[Na+] [Compound 3194]	1.1	0.5	0.72	degradation after overnight incubation (in words) [4]: No degradation was observed even after overnight incubation
CCCCCCCCCCOc1ccc(C(OCCN(CCCCS(=O)(=O)[O-])CCCCS(=O)(=O)[O-])(c2ccccc2)c2ccccc2)cc1.[Na+].[Na+] [Compound 3215]	1.2	1	0.56	time to degradation in 0.5% TFA ([4]; 0.1% solution): 60 min; thermolability (in words) [4]: moderate thermolability
CCCCCCOc1ccc(C(OCCCS(=O)(=O)[O-])(c2ccccc2)c2ccccc2)cc1.[Na+] [Compound 3202]	0.6	~0.01	1.1	time to degradation of 0.01% solution [4, 7]: ≤ 30 min
CCCCCCCCCCC(OC(=O)NCCCS(=O)(=O)O)c1ccc(C(F)(F)F)cc1 (stereo not drawn) [Compound 3200]	0.8	~0.01	0.7	degradation after overnight incubation (in words) [4]: No degradation was observed even after overnight incubation
CCCCCCCCCCC1COC(c2cc(OCCCS(=O)(=O)[O-])ccc2[N+](=O)[O-])O1.[Na+] (stereo not drawn) [Compound 3225]	0.9	–	1.1	solubilized in DMSO to [2]: 10%; solubility in aqueous solutions (in words) [2]: Not soluble in aqueous solutions; acid-lability (in words) [4]: slowly degrades in 0.5% TFA at 37 °C; thermolability (in words) [4]: No thermolability was observed
CCCCCCCCCCCCOc1ccc(/C=N/CCCS(=O)(=O)O)cc1 [Compound 3221]	0.5	0.5	0.13	–
CCCCCCCCCCC(OC(=O)NCCCS(=O)(=O)O)c1cc(OC)cc(OC)c1 (stereo not drawn) [Compound 3236]	0.71	1	1.4	degradation by acid (0.5% TFA) or by heat (boiling), in words ([4]; 3236: 0.1% solution in 0.5% TFA 30 minutes at 37° C. or 5 minutes of boiling without TFA): no degradation was observed
